Assay results reported in ChEMBL document CHEMBL1201862, “PubChem BioAssay data set” (2004).
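Exposure lasted 48 hours, with cells grown in 96-well plates and compounds tested at five concentrations. GI50 is the concentration that inhibits growth by half.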 Activity calls are given as the source filed them. Rule as the data show it: active = GI50 up to about 1.1 µM and inactive = higher.

How the values were obtained:
Assay in all cases: inhibition of tumour cell growth, NCI panel, 48 h
[1] = tested on: CAKI-1
[2] = tested on: CCRF-CEM
[3] = tested on: HOP-62
[4] = tested on: IGROV-1
[5] = tested on: K562
[6] = tested on: MCF7
[7] = tested on: MDA-MB-231
[8] = tested on: MDA-MB-435
[9] = tested on: MDA-N
[10] = tested on: NCI-H23
[11] = tested on: OVCAR-5
[12] = tested on: RPMI-8226
[13] = tested on: SNB-75
[14] = tested on: UACC-62
[15] = tested on: UO-31
[16] = tested on: OVCAR-3
[17] = tested on: SF-268
[18] = tested on: SF-539
[19] = tested on: A498

Compound	GI50 [1]	GI50 [2]	GI50 [3]	GI50 [4]	GI50 [5]	GI50 [6]	GI50 [7]	GI50 [8]	GI50 [9]	GI50 [10]	GI50 [11]	GI50 [12]	GI50 [13]	GI50 [14]	GI50 [15]	GI50 [16]	GI50 [17]	GI50 [18]	GI50 [19]
C[C@@H](c1ccccc1)N1CO[C@@]2(C#Cc3ccc4c(c3)OCO4)CCC[C@@H]12	16.3 µM (inactive)	19.8 µM (inactive)	15.8 µM (inactive)	10.7 µM (inactive)	13.8 µM (inactive)	> 100 µM (inactive)	13.3 µM (inactive)	13.7 µM (inactive)	17.3 µM (inactive)	14.7 µM (inactive)	18.1 µM (inactive)	11.2 µM (inactive)	13.9 µM (inactive)	> 100 µM (inactive)	14.4 µM (inactive)	–	–	–	–
O=C1CCC2(c3ccc(Cl)cc3)Nc3ccncc3N12 (centres undefined)	–	> 10 µM (inactive)	–	> 10 µM (inactive)	> 10 µM (inactive)	–	0.00507 µM (active)	> 10 µM (inactive)	> 10 µM (inactive)	> 10 µM (inactive)	> 10 µM (inactive)	–	> 10 µM (inactive)	> 10 µM (inactive)	> 10 µM (inactive)	> 10 µM (inactive)	> 10 µM (inactive)	> 10 µM (inactive)	–
CCOc1cc(NC(C)=O)ccc1C(=O)NNS(=O)(=O)c1ccc(NC(C)=O)cc1	54.6 µM (inactive)	38.9 µM (inactive)	63.5 µM (inactive)	43.9 µM (inactive)	38 µM (inactive)	40.6 µM (inactive)	–	27.9 µM (inactive)	16.7 µM (inactive)	97.3 µM (inactive)	> 100 µM (inactive)	31.7 µM (inactive)	72.9 µM (inactive)	57.3 µM (inactive)	62.4 µM (inactive)	34.6 µM (inactive)	88.7 µM (inactive)	33.2 µM (inactive)	51.8 µM (inactive)
CN(C)c1ccc(/C=C2\N=C(c3ccccc3)N(c3nc4ccc(Sc5ccccc5)cc4[nH]3)C2=O)cc1	35.4 µM (inactive)	16.7 µM (inactive)	33.1 µM (inactive)	61.5 µM (inactive)	26.4 µM (inactive)	30 µM (inactive)	49.1 µM (inactive)	16.7 µM (inactive)	–	47.1 µM (inactive)	41.8 µM (inactive)	24.8 µM (inactive)	53.2 µM (inactive)	22.5 µM (inactive)	59.3 µM (inactive)	27.4 µM (inactive)	43.8 µM (inactive)	–	37.6 µM (inactive)
C#CCn1c(=O)[nH]c(=O)c2cccnc21	> 100 µM (inactive)	–	> 100 µM (inactive)	–	–	–	–	–	–	> 100 µM (inactive)	> 100 µM (inactive)	> 100 µM (inactive)	> 100 µM (inactive)	–	–	–	> 100 µM (inactive)	–	–
O=C(Cn1c(=O)oc2ccc(C(=O)c3cccc(Cl)c3)cc21)c1ccccc1	> 100 µM (inactive)	> 100 µM (inactive)	> 100 µM (inactive)	> 100 µM (inactive)	57.8 µM (inactive)	87.9 µM (inactive)	> 100 µM (inactive)	> 100 µM (inactive)	–	> 100 µM (inactive)	> 100 µM (inactive)	> 100 µM (inactive)	25.1 µM (inactive)	> 100 µM (inactive)	99.8 µM (inactive)	> 100 µM (inactive)	> 100 µM (inactive)	> 100 µM (inactive)	33 µM (inactive)
O=C(OCc1ccccc1CN1CCOCC1)c1ccc(Br)cc1	–	–	72.3 µM (inactive)	47.8 µM (inactive)	0.0209 µM (active)	39.6 µM (inactive)	71.4 µM (inactive)	31 µM (inactive)	–	39.4 µM (inactive)	73.1 µM (inactive)	22.1 µM (inactive)	> 100 µM (inactive)	55 µM (inactive)	95.7 µM (inactive)	31.8 µM (inactive)	> 100 µM (inactive)	> 100 µM (inactive)	> 100 µM (inactive)
CC(C)(C)n1c(=O)n(C(=O)C(Cl)(Cl)Cl)n(C(=O)C(Cl)(Cl)Cl)c1=O	> 100 µM (inactive)	> 100 µM (inactive)	> 100 µM (inactive)	> 100 µM (inactive)	> 100 µM (inactive)	> 100 µM (inactive)	> 100 µM (inactive)	> 100 µM (inactive)	> 100 µM (inactive)	> 100 µM (inactive)	> 100 µM (inactive)	> 100 µM (inactive)	–	> 100 µM (inactive)	> 100 µM (inactive)	> 100 µM (inactive)	> 100 µM (inactive)	> 100 µM (inactive)	–
Clc1cc(-c2ccccc2)nc(Nc2nc3ccccc3[nH]2)n1	2.14 µM (inactive)	6.08 µM (inactive)	–	14.7 µM (inactive)	4.05 µM (inactive)	–	15 µM (inactive)	23.3 µM (inactive)	18.8 µM (inactive)	18.2 µM (inactive)	> 100 µM (inactive)	> 100 µM (inactive)	34.4 µM (inactive)	17.7 µM (inactive)	55 µM (inactive)	–	23.6 µM (inactive)	> 100 µM (inactive)	33.3 µM (inactive)
O=C1CCC2(CC1)Cc1ccccc1C2O (centres undefined)	> 100 µM (inactive)	> 100 µM (inactive)	> 100 µM (inactive)	> 100 µM (inactive)	> 100 µM (inactive)	> 100 µM (inactive)	> 100 µM (inactive)	–	> 100 µM (inactive)	> 100 µM (inactive)	> 100 µM (inactive)	–	< 0.01 µM (active)	> 100 µM (inactive)	> 100 µM (inactive)	–	> 100 µM (inactive)	> 100 µM (inactive)	–
S=C(Nc1cc(Cl)c(Cl)cc1Cl)SCc1ccccc1	22.6 µM (inactive)	–	26 µM (inactive)	33.9 µM (inactive)	18.5 µM (inactive)	38.5 µM (inactive)	13.1 µM (inactive)	19.8 µM (inactive)	–	20.1 µM (inactive)	22.8 µM (inactive)	21 µM (inactive)	39.3 µM (inactive)	66.5 µM (inactive)	40.6 µM (inactive)	21.8 µM (inactive)	38.1 µM (inactive)	23.1 µM (inactive)	32.9 µM (inactive)
COc1ccc(-c2cc(-c3cc(F)c(Cl)cc3Cl)on2)cc1OC	45 µM (inactive)	12.5 µM (inactive)	15.6 µM (inactive)	68.1 µM (inactive)	3.96 µM (inactive)	–	20.1 µM (inactive)	1.8 µM (inactive)	2.44 µM (inactive)	29.9 µM (inactive)	> 100 µM (inactive)	34.7 µM (inactive)	28.9 µM (inactive)	–	95.9 µM (inactive)	11.8 µM (inactive)	34 µM (inactive)	4.61 µM (inactive)	–
C(=C/c1ccc2nc(-c3ccc(/C=C/C=N/NC4=NCCCN4)cc3)cn2c1)/C=N/NC1=NCCCN1	12.1 µM (inactive)	35.7 µM (inactive)	> 100 µM (inactive)	31.5 µM (inactive)	4.39 µM (inactive)	–	15.2 µM (inactive)	26.1 µM (inactive)	43.9 µM (inactive)	> 100 µM (inactive)	49.9 µM (inactive)	0.822 µM (active)	35.7 µM (inactive)	30.1 µM (inactive)	> 100 µM (inactive)	> 100 µM (inactive)	12.2 µM (inactive)	25.5 µM (inactive)	> 100 µM (inactive)
